In patent publication US20230295234A1, “ANTIMICROBIAL PEPTIDOMIMETICS” (SPEXIS AG, priority 2020, published 2023):
Like-named read-outs stand apart in the source and are kept apart here. Bridge positions count the residues as written; N and C are the ends. Square brackets hold non-standard residues; d marks the D form. Peptide text beside a SMILES is read from it. * marks the point of attachment. Val(Nα-amidino) = CC(C)[C@H](NC(=N)N)C(=O)*; Pro(4R-NH2) = N[C@H]1CN[C@H](C(=O)O)C1; Pen = CC(C)(S)[C@H](N)C(=O)O; dDab = NCC[C@@H](N)C(=O)O; Dab = NCC[C@H](N)C(=O)O

Columns and labels:
[1] = system: human red blood cells (hRBC); experiment: Hemolysis of human red blood cells; assay type: cell-based
How it was run: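 PBS-washed human red blood cells (20% v/v) were incubated with peptide at 200 μg/mL for 1 h at 37 °C with shaking. Supernatant OD was read at 540 nm after 8-fold dilution. Hemolysis is expressed as percent of the water control.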

[2] = system: Klebsiella pneumoniae SSI3010
How it was run: (§1)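 Activity is measured against peptides serially diluted two-fold in water with 0.002% final Polysorbate 80. The cells are in cation-adjusted MHII broth at roughly 5×10^5 CFU/mL, prepared from a 0.5 McFarland suspension in 0.85% NaCl.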

[3] = system: Escherichia coli MCR-1 Af 45; conditions: Mueller-Hinton broth II, 18-20 hours at 35° C.
How it was run: as §1

[4] = system: Escherichia coli ATCC 25922
How it was run: as §1

[5] = Mueller-Hinton broth II, 18-20 hours at 35° C.

Row | SMILES | Hemolysis at 0.2 g/L ([1]; red cells of human, 1 h) [%] | Klebsiella pneumoniae SSI3010 MIC ([2]; SSI3010) [µg/mL] | Escherichia coli MCR-1 Af 45 MIC [3] [µg/mL] | Escherichia coli ATCC 25922 MIC ([4]; ATCC 25922) [µg/mL] | Hemolysis at 0.2 g/L ([1]; 20% hRBC, 1 h at 37° C.) [%] | Klebsiella pneumoniae SSI3010 MIC [2, 5] [µg/mL] | Escherichia coli ATCC 25922 MIC [4, 5] [µg/mL]
1 | CC[C@H](C)[C@H](NC(=O)[C@@H]1C[C@@H](O)CN1C(=O)[C@@H](N)C(C)C)C(=O)N[C@@H](CN)C(=O)N[C@@H](Cc1ccc(O)cc1)C(=O)N[C@@H]1C(=O)N[C@@H](CC(N)=O)C(=O)N[C@@H](CCCNC(=N)N)C(=O)N[C@@H](CCN)C(=O)N[C@@H]([C@@H](C)O)C(=O)N[C@H](CCN)C(=O)N[C@@H](CCCCN)C(=O)N[C@H](C(=O)N[C@@H](CCN)C(=O)N[C@@H](CCCNC(=N)N)C(=O)N[C@@H](Cc2ccc(O)cc2)C(=O)O)CSSC1(C)C [Example 183] (HELM PEPTIDE1{V.[Hyp].I.[NC[C@H](N[*:1])C(=O)[*:2]].Y.[Pen].N.R.[Dab].T.[NCC[C@@H](N[*:1])C(=O)[*:2]].K.C.[Dab].R.Y}$PEPTIDE1,PEPTIDE1,6:R3-13:R3$$$V2.0) | 0 | 0.5 | 0.125 | 0.25 | – | – | –
2 | CC[C@H](C)[C@H](NC(=O)[C@@H]1C[C@@H](O)CN1C(=O)[C@@H](N)C(C)C)C(=O)N[C@@H](CCCNC(=N)N)C(=O)N[C@@H](Cc1ccc(O)cc1)C(=O)N[C@@H]1C(=O)N[C@@H](CC(N)=O)C(=O)N[C@@H](CCCNC(=N)N)C(=O)N[C@@H](CCN)C(=O)N[C@@H]([C@@H](C)O)C(=O)N[C@H](CCN)C(=O)N[C@@H](CCCCN)C(=O)N[C@H](C(=O)N[C@@H](CCN)C(=O)N[C@@H](CCCNC(=N)N)C(=O)N[C@@H](Cc2ccc(O)cc2)C(=O)O)CSSC1(C)C [Example 184] (HELM PEPTIDE1{V.[Hyp].I.R.Y.[Pen].N.R.[Dab].T.[NCC[C@@H](N[*:1])C(=O)[*:2]].K.C.[Dab].R.Y}$PEPTIDE1,PEPTIDE1,6:R3-13:R3$$$V2.0) | 0 | 0.25 | 0.0625 | 0.25 | – | – | –
3 | CC[C@H](C)[C@H](NC(=O)[C@@H]1C[C@@H](N)CN1C(=O)[C@@H](N)C(C)C)C(=O)N[C@H](C(=O)N[C@@H](Cc1ccc(O)cc1)C(=O)N[C@@H]1C(=O)N[C@@H](CC(N)=O)C(=O)N[C@@H](CCCNC(=N)N)C(=O)N[C@@H](CCN)C(=O)N[C@@H]([C@@H](C)O)C(=O)N[C@H](CCN)C(=O)N[C@@H](CCCCN)C(=O)N[C@H](C(=O)N[C@@H](Cc2ccc(O)cc2)C(=O)N[C@@H](CCCNC(=N)N)C(=O)N[C@@H](Cc2ccc(O)cc2)C(=O)O)CSSC1(C)C)[C@@H](C)O [Example 185] (HELM PEPTIDE1{V.[N[C@@H]1C[C@@H](C(=O)[*:2])N([*:1])C1].I.T.Y.[Pen].N.R.[Dab].T.[NCC[C@@H](N[*:1])C(=O)[*:2]].K.C.Y.R.Y}$PEPTIDE1,PEPTIDE1,6:R3-13:R3$$$V2.0) | 0 | 0.5 | 0.125 | 0.25 | – | – | –
4 | CC[C@H](C)[C@H](NC(=O)[C@@H](NC(=O)[C@@H]1CCCN1C(=O)[C@@H](NC(=N)N)C(C)C)[C@@H](C)CC)C(=O)N[C@@H](Cc1ccc(O)cc1)C(=O)N[C@H]1CSSC[C@@H](C(=O)N[C@@H](CCN)C(=O)N[C@@H](CCCNC(=N)N)C(=O)N[C@@H](Cc2ccc(O)cc2)C(=O)O)NC(=O)[C@H](CCCCN)NC(=O)[C@@H](CCN)NC(=O)[C@H]([C@@H](C)O)NC(=O)[C@H](CCN)NC(=O)[C@H](CCCNC(=N)N)NC(=O)[C@H](CC(N)=O)NC1=O [Example 186] (HELM PEPTIDE1{[CC(C)[C@H](NC(=N)N)C(=O)[*:2]].P.I.I.Y.C.N.R.[Dab].T.[NCC[C@@H](N[*:1])C(=O)[*:2]].K.C.[Dab].R.Y}$PEPTIDE1,PEPTIDE1,6:R3-13:R3$$$V2.0) | 0 | ≤0.25 | 0.125 | 0.125 | – | – | –
5 | CC[C@H](C)[C@H](NC(=O)[C@@H](NC(=O)[C@@H]1CCCN1C(=O)[C@@H](NC(=N)N)C(C)C)[C@@H](C)CC)C(=O)N[C@@H](Cc1ccc(O)cc1)C(=O)N[C@@H]1C(=O)N[C@@H](CC(N)=O)C(=O)N[C@@H](CCCNC(=N)N)C(=O)N[C@@H](CCN)C(=O)N[C@@H]([C@@H](C)O)C(=O)N[C@H](CCN)C(=O)N[C@@H](CCCCN)C(=O)N[C@H](C(=O)N[C@@H](CCN)C(=O)N[C@@H](CCCNC(=N)N)C(=O)N[C@@H](Cc2ccc(O)cc2)C(=O)O)CSSC1(C)C [Example 187] (HELM PEPTIDE1{[CC(C)[C@H](NC(=N)N)C(=O)[*:2]].P.I.I.Y.[Pen].N.R.[Dab].T.[NCC[C@@H](N[*:1])C(=O)[*:2]].K.C.[Dab].R.Y}$PEPTIDE1,PEPTIDE1,6:R3-13:R3$$$V2.0) | – | – | 0.125 | – | 0 | 0.125 | 0.125
6 | CC[C@H](C)[C@H](NC(=O)[C@@H]1C[C@@H](O)CN1C(=O)[C@@H](NC(=N)N)C(C)C)C(=O)N[C@H](C(=O)N[C@@H](Cc1ccc(O)cc1)C(=O)N[C@@H]1C(=O)N[C@@H](CC(N)=O)C(=O)N[C@@H](CCCNC(=N)N)C(=O)N[C@@H](CCN)C(=O)N[C@@H]([C@@H](C)O)C(=O)N[C@H](CCN)C(=O)N[C@@H](CCCCN)C(=O)N[C@H](C(=O)N[C@@H](CCN)C(=O)N[C@@H](CCCNC(=N)N)C(=O)N[C@@H](Cc2ccc(O)cc2)C(=O)O)CSSC1(C)C)[C@@H](C)O [Example 188] (HELM PEPTIDE1{[CC(C)[C@H](NC(=N)N)C(=O)[*:2]].[Hyp].I.T.Y.[Pen].N.R.[Dab].T.[NCC[C@@H](N[*:1])C(=O)[*:2]].K.C.[Dab].R.Y}$PEPTIDE1,PEPTIDE1,6:R3-13:R3$$$V2.0) | 0 | 0.25 | ≤0.125 | 0.125 | – | – | –
7 | CC[C@H](C)[C@H](NC(=O)[C@@H](NC(=O)[C@@H]1C[C@@H](O)CN1C(=O)[C@@H](NC(=N)N)C(C)C)[C@@H](C)CC)C(=O)N[C@@H](Cc1ccc(O)cc1)C(=O)N[C@@H]1C(=O)N[C@@H](CC(N)=O)C(=O)N[C@@H](CCCNC(=N)N)C(=O)N[C@@H](CCN)C(=O)N[C@@H]([C@@H](C)O)C(=O)N[C@H](CCN)C(=O)N[C@@H](CCCCN)C(=O)N[C@H](C(=O)N[C@@H](CCN)C(=O)N[C@@H](CCCNC(=N)N)C(=O)N[C@@H](Cc2ccc(O)cc2)C(=O)O)CSSC1(C)C [Example 189] (HELM PEPTIDE1{[CC(C)[C@H](NC(=N)N)C(=O)[*:2]].[Hyp].I.I.Y.[Pen].N.R.[Dab].T.[NCC[C@@H](N[*:1])C(=O)[*:2]].K.C.[Dab].R.Y}$PEPTIDE1,PEPTIDE1,6:R3-13:R3$$$V2.0) | – | – | 0.03125 | – | 0 | 0.0625 | 0.03125
8 | CC[C@H](C)[C@H](NC(=O)[C@@H]1C[C@@H](N)CN1C(=O)[C@@H](NC(=N)N)C(C)C)C(=O)N[C@H](C(=O)N[C@@H](Cc1ccc(O)cc1)C(=O)N[C@@H]1C(=O)N[C@@H](CC(N)=O)C(=O)N[C@@H](CCCNC(=N)N)C(=O)N[C@@H](CCN)C(=O)N[C@@H]([C@@H](C)O)C(=O)N[C@H](CCN)C(=O)N[C@@H](CCCCN)C(=O)N[C@H](C(=O)N[C@@H](CCN)C(=O)N[C@@H](CCCNC(=N)N)C(=O)N[C@@H](Cc2ccc(O)cc2)C(=O)O)CSSC1(C)C)[C@@H](C)O [Example 190] ({Val(Nα-amidino)}-[Pro(4R-NH2)]ITY[Pen]NR[Dab]T[dDab]KC[Dab]RY-OH; disulfide 5-12) | 0 | 0.125 | 0.0625 | 0.0625 | – | – | –
9 | CC[C@H](C)[C@H](NC(=O)[C@@H](NC(=O)[C@@H]1C[C@@H](N)CN1C(=O)[C@@H](NC(=N)N)C(C)C)[C@@H](C)CC)C(=O)N[C@@H](Cc1ccc(O)cc1)C(=O)N[C@@H]1C(=O)N[C@@H](CC(N)=O)C(=O)N[C@@H](CCCNC(=N)N)C(=O)N[C@@H](CCN)C(=O)N[C@@H]([C@@H](C)O)C(=O)N[C@H](CCN)C(=O)N[C@@H](CCCCN)C(=O)N[C@H](C(=O)N[C@@H](CCN)C(=O)N[C@@H](CCCNC(=N)N)C(=O)N[C@@H](Cc2ccc(O)cc2)C(=O)O)CSSC1(C)C [Example 191] ({Val(Nα-amidino)}-[Pro(4R-NH2)]IIY[Pen]NR[Dab]T[dDab]KC[Dab]RY-OH; disulfide 5-12) | 0 | 0.0625 | 0.0625 | 0.0625 | – | – | –
10 | CC[C@H](C)[C@H](NC(=O)[C@@H]1C[C@@H](O)CN1C(=O)[C@@H](NC(=N)N)C(C)C)C(=O)N[C@@H](Cc1ccc(O)cc1)C(=O)N[C@@H](Cc1ccc(O)cc1)C(=O)N[C@@H]1C(=O)N[C@@H](CC(N)=O)C(=O)N[C@@H](CCCNC(=N)N)C(=O)N[C@@H](CCN)C(=O)N[C@@H]([C@@H](C)O)C(=O)N[C@H](CCN)C(=O)N[C@@H](CCCCN)C(=O)N[C@H](C(=O)N[C@@H](CCC(N)=O)C(=O)N[C@@H](CCCNC(=N)N)C(=O)N[C@@H](Cc2ccc(O)cc2)C(=O)O)CSSC1(C)C [Example 192] (HELM PEPTIDE1{[CC(C)[C@H](NC(=N)N)C(=O)[*:2]].[Hyp].I.Y.Y.[Pen].N.R.[Dab].T.[NCC[C@@H](N[*:1])C(=O)[*:2]].K.C.Q.R.Y}$PEPTIDE1,PEPTIDE1,6:R3-13:R3$$$V2.0) | 0 | 0.25 | 0.25 | 0.25 | – | – | –
